The target in one assay is T1, human SCD1 (Homo sapiens, UniProt O00767).
T1 construct: expressed in transfected cells; host or cells: yeast strain with OLE1 deleted, plasmid-borne human SCD1 (selected in SD-Ura)
T1 sequence (O00767 1-359): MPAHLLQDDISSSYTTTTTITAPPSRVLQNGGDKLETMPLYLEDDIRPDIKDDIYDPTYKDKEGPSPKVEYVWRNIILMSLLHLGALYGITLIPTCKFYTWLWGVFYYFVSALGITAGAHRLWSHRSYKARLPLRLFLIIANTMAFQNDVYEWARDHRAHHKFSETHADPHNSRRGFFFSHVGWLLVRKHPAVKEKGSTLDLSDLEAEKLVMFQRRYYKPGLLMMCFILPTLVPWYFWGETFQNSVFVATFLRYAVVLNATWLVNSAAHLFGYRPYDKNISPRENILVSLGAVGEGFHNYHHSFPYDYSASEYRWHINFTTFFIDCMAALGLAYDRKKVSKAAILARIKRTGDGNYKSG
The experiment in a line: Growth inhibition of yeast strain expressing human SCD1 as sole desaturase (OLE1 deleted), OD600 readout. In kind it is cell-based.

Another assay concerns the target T2, human SCD5 (Homo sapiens, UniProt Q86SK9).
T2 construct: expressed in transfected cells; host or cells: yeast strain with OLE1 deleted, plasmid-borne human SCD5 (selected in SD-Ura)
T2 sequence (Q86SK9 1-330): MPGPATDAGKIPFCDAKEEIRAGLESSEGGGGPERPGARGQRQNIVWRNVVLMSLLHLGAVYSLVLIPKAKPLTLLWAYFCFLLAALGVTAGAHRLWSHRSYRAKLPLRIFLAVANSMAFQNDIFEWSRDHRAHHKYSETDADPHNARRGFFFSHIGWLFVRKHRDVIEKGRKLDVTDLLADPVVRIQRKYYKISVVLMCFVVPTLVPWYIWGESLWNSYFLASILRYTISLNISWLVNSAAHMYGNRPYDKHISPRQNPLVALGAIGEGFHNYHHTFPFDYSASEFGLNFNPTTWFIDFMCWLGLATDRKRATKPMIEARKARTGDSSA
The experiment in a line: Growth inhibition of yeast strain expressing human SCD5 as sole desaturase (OLE1 deleted), OD600 readout. In kind it is cell-based.

Where [1] appears, read: yeast strain expressing human SCD1 as sole desaturase, growth (OD600) after 40 h at 30° C., read-out: SCD1 IC50.
The mark [2] stands for this setting: yeast strain expressing human SCD5 as sole desaturase, growth (OD600) after 40 h at 30° C., read-out: SCD5 IC50.

Like-named read-outs stand apart in the source and are kept apart here.

With `N#Cc1ccc(C(=O)Nc2ccc(Cc3ccc(F)c(F)c3)cn2)cn1` [Compound 541], the IC50 on human SCD1 (setting [1]) was found to be 6600 nM; at human SCD5 (setting [2]), 220 nM.

For the compound `Cn1nc(C(=O)Nc2ncc(Cc3cccc(C#N)c3)s2)ccc1=O` [Compound 389], the IC50 at human SCD1 (setting [1]) and at human SCD5 (setting [2]) was above 45000 nM in each case.

Regarding `COc1cc(Cl)cc(Cc2ccc(NC(=O)c3ccc(=O)n(C)c3)nc2)c1` [Compound 50, N-(5-(3-chloro-5-methoxybenzyl)pyridin-2-yl)-1-methyl-6-oxo-1,6-dihydropyridine-3-carboxamide], the IC50 against human SCD1 (SCD1 IC50) was determined as 1530 nM; on human SCD5 (SCD5 IC50), 20 nM.

As for `CCn1cc(C(=O)Nc2ccc(Cc3cc(F)cc(C#N)c3)cn2)cn1` [Compound 594], the concentration for half-maximal inhibition (IC50) at human SCD1 (setting [1]) was 3100 nM; on human SCD5 (setting [2]), 120 nM.

For the compound `O=C(Nc1ccc(Cc2cccc(F)c2)cn1)c1ccc2nncn2c1` [Compound 151, N-(5-(3-fluorobenzyl)pyridin-2-yl)-[1,2,4]triazolo[4,3-a]pyridine-6-carboxamide], the IC50 at human SCD1 (setting [1]) amounted to 1340 nM; on human SCD5 (setting [2]), 80 nM.

Turning to `Cc1ncc(C(=O)Nc2ccc(Cc3cc(F)cc(C#N)c3)cn2)cn1` [Compound 595], the IC50 at human SCD1 (setting [1]) came to 35000 nM; at human SCD5 (setting [2]), 420 nM.

Take `Cn1nc(C(=O)Nc2ccc(Nc3cccc(Cl)c3)cn2)ccc1=O` [Compound 367]: the IC50 at human SCD1 (setting [1]) was found to be 25800 nM; on human SCD5 (setting [2]), 2980 nM.

For the compound `Cn1cc(C(=O)Nc2ccc(C#CC3CC3)cn2)ccc1=O` [Compound 337], the values for the IC50 on human SCD1 (setting [1]) and at human SCD5 (setting [2]) were above 45000 nM and 9870 nM, respectively.

For the compound `Cc1ncc(C(=O)Nc2ccc(Cc3cc(F)cc(F)c3)cn2)cn1` [Compound 581], the 50% inhibitory concentration (IC50) at human SCD1 (setting [1]) is 680 nM; at human SCD5 (setting [2]) it was 62 nM.

`Cn1nc(C(=O)Nc2ccc(Cc3ccc(F)c(Cl)c3)cn2)cc1O` [Compound 323]: the IC50 came out at 10700 nM on human SCD1 (setting [1]) and 810 nM on human SCD5 (setting [2]).

In the case of `O=C(Nc1ccc(Cc2cccc(Cl)c2)cn1)N1CCC2(CC1)COC2` [Compound 393], the IC50 at human SCD1 (setting [1]) and on human SCD5 (setting [2]) was above 45000 nM each time.

For `N#Cc1cnc(C(=O)Nc2ccc(Cc3cc(F)cc(F)c3)cn2)cn1` [Compound 639], the IC50 was determined as 490 nM on human SCD1 (setting [1]) and 39 nM on human SCD5 (setting [2]).

As for `CC(O)c1ccc(C(=O)Nc2ccc(Cc3cccc(Cl)c3)cn2)cn1` (centres unmarked) [Compound 368], the IC50 on human SCD1 (setting [1]) was determined as 1370 nM; on human SCD5 (setting [2]), 240 nM.

Consider `Cn1c(C(=O)Nc2ccc(Cc3cc(F)cc(F)c3)cn2)coc1=O` [Compound 509], for which the IC50 at human SCD1 (setting [1]) was 430 nM; at human SCD5 (setting [2]), 120 nM.

In the case of `Cn1ccc(C(=O)Nc2ccc(Cc3ccc(F)c(F)c3)cn2)nc1=O` [Compound 548], the IC50 was above 45000 nM on human SCD1 (setting [1]) and 3000 nM on human SCD5 (setting [2]).

As for `O=C(Nc1ccc(Cc2cc(F)cc(F)c2)cn1)c1ccncc1` [Compound 651], the IC50 at human SCD1 (setting [1]) turned out to be 90 nM; on human SCD5 (setting [2]), 24 nM.

Consider `Cn1nc(C(=O)Nc2ccc(COc3cc(F)cc(F)c3)cn2)ccc1=O` [Compound 658], for which the results for the IC50 on human SCD1 (setting [1]) and at human SCD5 (setting [2]) were 1600 nM and 180 nM, respectively.

As for `CN1N=C(C(=O)Nc2ncc(N(C)c3cccc(F)c3)s2)CCC1=O` [Compound 237, N-(5-((3-fluorophenyl)(methyl)amino)thiazol-2-yl)-1-methyl-6-oxo-1,4,5,6-tetrahydropyridazine-3-carboxamide], the IC50 on human SCD1 (setting [1]) was 7210 nM; on human SCD5 (setting [2]), 3200 nM.

Turning to `CN1N=C(C(=O)Nc2ccc(Cc3cc(Cl)ccc3F)nn2)CCC1=O` [Compound 177, N-(6-(5-chloro-2-fluorobenzyl)pyridazin-3-yl)-1-methyl-6-oxo-1,4,5,6-tetrahydropyridazine-3-carboxamide], the IC50 was above 45000 nM at human SCD1 (setting [1]) and 5490 nM on human SCD5 (setting [2]).

For the compound `C=Cc1cnc(C(=O)Nc2ccc(Cc3ccc(F)c(F)c3)cn2)nc1` [Compound 568], the IC50 is 3900 nM on human SCD1 (setting [1]) and 880 nM at human SCD5 (setting [2]).

For `Cn1nc(C(=O)Nc2ccc(Cc3ccc(F)c(C#N)c3)cn2)ccc1=O` [Compound 564], the 50% inhibitory concentration (IC50) on human SCD1 (setting [1]) was found to be 1400 nM; at human SCD5 (setting [2]) it was 62 nM.

Consider `COc1ccc(Cn2c(C(=O)Nc3ccc(Cc4cccc(Cl)c4)cn3)cc(=O)n2C)cc1` [Compound 456], for which the IC50 on human SCD1 (setting [1]) and at human SCD5 (setting [2]) was above 45000 nM throughout.

Consider `Cn1cc(C(=O)Nc2ccc(Cc3cc(Cl)cc(C#N)c3)cn2)ccc1=O` [Compound 618], for which the IC50 at human SCD1 (setting [1]) came out at 510 nM; on human SCD5 (setting [2]) it was 22 nM.

With `CN1N=C(C(=O)Nc2ccc(Cc3cccc(Br)c3)nn2)CCC1=O` [Compound 191, N-(6-(3-bromobenzyl)pyridazin-3-yl)-1-methyl-6-oxo-1,4,5,6-tetrahydropyridazine-3-carboxamide], the IC50 at human SCD1 (setting [1]) was above 45000 nM; at human SCD5 (setting [2]) it was 2680 nM.

As to `O=C(Nc1ccc(Cc2cccc(F)c2)nn1)c1ccc(=O)n(C2CC2)n1` [Compound 178, 1-cyclopropyl-N-{6-[(3-fluorophenyl)methyl]pyridazin-3-yl}-6-oxo-1,6-dihydropyridazine-3-carboxamide], the IC50 at human SCD1 (setting [1]) turned out to be 6670 nM; on human SCD5 (setting [2]), 770 nM.

Regarding `O=C(Nc1ccc(COc2cccc(Cl)c2)cn1)c1ccc(CO)nc1` [Compound 292], the results for the IC50 on human SCD1 (setting [1]) and at human SCD5 (setting [2]) were 2070 nM and 10 nM, respectively.

Take `Cc1nccc(C(=O)Nc2ccc(Cc3cccc(F)c3)cn2)n1` [Compound 144, N-(5-(3-fluorobenzyl)pyridin-2-yl)-2-methylpyrimidine-4-carboxamide]: the IC50 at human SCD1 (setting [1]) and on human SCD5 (setting [2]) was 10 nM in each case.

For the compound `CN1N=C(NC(=O)c2ccc(Cc3cccc(Cl)c3)nn2)CCC1=O` [Compound 190, 6-(3-chlorobenzyl)-N-(1-methyl-6-oxo-1,4,5,6-tetrahydropyridazin-3-yl)pyridazine-3-carboxamide], the IC50 at human SCD1 (setting [1]) is above 45000 nM; on human SCD5 (setting [2]) it was 33000 nM.

Take `Cc1nc(NC(=O)C2=NN(C)C(=O)CC2)sc1Cc1cccc(F)c1` [Compound 219, N-(5-(3-fluorobenzyl)-4-methylthiazol-2-yl)-1-methyl-6-oxo-1,4,5,6-tetrahydropyridazine-3-carboxamide]: the IC50 on human SCD1 (setting [1]) came to 1580 nM; at human SCD5 (setting [2]), 1350 nM.

Regarding `NCc1ccc(C(=O)Nc2ccc(Cc3cccc(Cl)c3)cn2)cn1` [Compound 121, 6-(aminomethyl)-N-(5-(3-chlorobenzyl)pyridin-2-yl)nicotinamide 2,2,2-trifluoroacetate], the half-maximal inhibitory concentration (IC50) at human SCD1 (setting [1]) and at human SCD5 (setting [2]) was 20 nM in each case.

With `O=C(Nc1ccc(Cc2ccc(F)c(F)c2)cn1)c1cnc(Cl)cn1` [Compound 602], the values for the IC50 on human SCD1 (setting [1]) and at human SCD5 (setting [2]) were above 45000 nM and 66 nM, respectively.

For `O=C(Nc1ccc(C=C2CCOCC2)cn1)c1ccc(CO)nc1` [Compound 637], the figures for the IC50 at human SCD1 (setting [1]) and on human SCD5 (setting [2]) were 12000 nM and 8100 nM, respectively.

Consider `O=C(Nc1ccc(CC2CCCCC2)cn1)c1ccc(CO)nc1` [Compound 375], for which the IC50 at human SCD1 (setting [1]) and on human SCD5 (setting [2]) was 10 nM in each case.

Turning to `Cn1nc(C(=O)Nc2ccc(OCc3cc(F)cc(C#N)c3)cn2)ccc1=O` [Compound 441], the IC50 on human SCD1 (setting [1]) and at human SCD5 (setting [2]) was above 45000 nM in each case.

Regarding `Cn1cc(C(=O)Nc2ccc(Cc3cccc(F)c3)cn2)n(C)c1=O` [Compound 642], the IC50 at human SCD1 (setting [1]) is 92 nM; at human SCD5 (setting [2]), 10 nM.

Take `Cn1nc(NC(=O)c2ccc(Cc3cc(F)cc(F)c3)cn2)ccc1=O` [Compound 310]: the IC50 at human SCD1 (setting [1]) stood at 140 nM; on human SCD5 (setting [2]), 10 nM.

Consider `CC(=O)c1ccc(C(=O)Nc2ccc(Cc3cccc(Cl)c3)cn2)nc1` [Compound 502], for which the IC50 at human SCD1 (setting [1]) is above 45000 nM; at human SCD5 (setting [2]), 10 nM.

Take `CC(C)Cc1ccc(NC(=O)c2ccc(=O)n(C)n2)nn1` [Compound 395]: the IC50 at human SCD1 (setting [1]) and on human SCD5 (setting [2]) was above 45000 nM in each case.

For the compound `Cn1ccc(C(=O)Nc2ccc(Cc3ccc(F)c(F)c3)cn2)n1` [Compound 92, N-(5-(3,4-difluorobenzyl)pyridin-2-yl)-1-methyl-1H-pyrazole-3-carboxamide], the results for the IC50 at human SCD1 (setting [1]) and on human SCD5 (setting [2]) were 110 nM and 20 nM, respectively.

Turning to `N#Cc1ccc(C(=O)Nc2ccc(CNc3cccc(Cl)c3)cn2)cn1` [Compound 482], the IC50 was determined as 4800 nM at human SCD1 (setting [1]) and 620 nM at human SCD5 (setting [2]).

As for `CCc1cc(C(=O)Nc2ccc(Cc3cccc(F)c3)cn2)nn(C)c1=O` [Compound 531], the IC50 at human SCD1 (setting [1]) worked out at 1300 nM; on human SCD5 (setting [2]), 340 nM.

For the compound `CN1N=C(C(=O)Nc2ncc(Cc3cc(F)cc(F)c3)s2)CCC1=O` [Compound 229, N-(5-(3,5-difluorobenzyl)thiazol-2-yl)-1-methyl-6-oxo-1,4,5,6-tetrahydropyridazine-3-carboxamide], the IC50 on human SCD1 (setting [1]) was 140 nM; on human SCD5 (setting [2]) it was 110 nM.

Take `Cn1nc(C(=O)Nc2ccc(COc3cccc(Cl)c3)cn2)ccc1=O` [Compound 262]: the IC50 at human SCD1 (setting [1]) was 3980 nM; on human SCD5 (setting [2]) it was 260 nM.

The values are drawn from patent US20230078764A1 (Yumanity Therapeutics, Inc., priority 2019, published 2023).
